We go through three molecules from article PMC5384453, “A multi-functional PEGylated gold(III) compound: potent anti-cancer properties and self-assembly into nanostructures for drug co-delivery” (Chemical Science, 2016).

For one data set, the system named is human cancer cell lines. Nature of the data set: In vitro cytotoxicity toward cancer cells compared to cisplatin (MTT). In kind it is cell-based. The conditions noted are these: MTT 72 h. Here is the method: The in vitro cytotoxicity of 1–3 and Au1a to human cancer cell lines (HeLa, NCI-H460, HCT116, A2780) and the cisplatin- and doxorubicin-resistant cancer cell lines (A2780cis and A2780adr), as well as normal human colon mucosal epithelial cell line (NCM460), non-tumorigenic immortalized liver cells (MIHA) and normal lung fibroblast cells (CCD-19Lu), was evaluated using a 3-(4,5-dimethyl-2-thiazolyl)-2,5-diphenyltetrazolium bromide (MTT) assay (Table 1; Fig. S5a ^†). […] The low toxicity of 1 was also found in experiments with non-tumorigenic liver L02 and gliocyte CHEM-5 cells (Table S5 ^†). […]
The gold content of the nanocomposites was determined by dissolving the nanocomposites in conc. […]
The content of DOX in the nanocomposites was measured as follows. […] The solution was then diluted and filtered, and the content of DOX in the nanocomposite was determined by UPLC with photodiode array detector using daunorubicin hydrochloride (3.6 µM) as the internal standard. […]
hydrochloride standard over the peak area of daunorubicin hydrochloride (3.6 µM) in the UPLC chromatograms of the doxorubicin hydrochloride standard spiked with daunorubicin hydrochloride (3.6 µM). The encapsulation efficiency of DOX by nanostructures of 1 was calculated by the equation: […]
which reflected the amount of blue formazan formed. IC50 values were then determined by CompuSyn S6 from three independent measurements. […]

In a further data set the test system is A2780adr cells. Briefly: Cellular uptake, gold content by ICP-MS. In kind it is in vitro ADME, human. The conditions noted are these: 2 μM, 37 °C. As to the method:
The uptake of 1 and 3, and Au1a by cancer cells and non-tumorigenic cells was examined in terms of the gold content in the cell lysates using ICP-MS.
B from 20.1 to 25 min and returned to initial conditions and equilibrated for 3 minutes.
The flow rate was 0.4 mL/min and the injection volume was 2 µL. The UPLC-QTOF-MS chromatograms of 1, 3, 4 and solvent control in acetonitrile were also recorded for the interpretation of UPLC-QTOF-MS chromatograms of the cell lysate.
Cellular uptake experiments. HCT116, A2780 and A2780adr (2×10 5 cells), and MIHA and NCM460 (3.5×10 5 cells) cells were grown on 6-well plates at 37 °C under an atmosphere of 5% CO2 for 48 h. […]
Au1a (2 µM; with 1 vol% DMSO). […] An aliquot of the cell suspension was subjected to Bio-rad protein assay with a microtitre plate reader at the absorbance at 595 nm, using bovine serum albumin as the protein standard. […] The solution mixture was heated at 65 °C with shaking overnight, and the gold content was determined by ICP-MS. […]
then removed and washed with PBS solution. The cells were then incubated with culture medium containing nanostructures of 1 (2 µM) and CellEvent Caspase-3/7 Green ReadyProbes Reagent (30 µL), or Au1a (2 µM; with 1 vol% DMSO) and CellEvent Caspase-3/7 Green ReadyProbes Reagent (30 µL) at 37 °C under an atmosphere of 5% CO2. […]

As to “[Au(TPP–COO–PEG5000–OCH3)]Cl [Compound 1]”, the “times more cytotoxic than cisplatin” value with human cancer cell lines is reported as 5.1–76.9 times.

For `COC(=O)c1ccc(C2=C3C=CC(=N3)C(c3ccccc3)=c3ccc4[n]3[Au+][n]3c(ccc32)C(c2ccccc2)=C2C=CC(=N2)C=4c2ccccc2)cc1.[Cl-]` [Compound 3, [Au(TPP–COOCH3)]^+], the “incubation time after which the amount in A2780adr cells decreases” value in the data set on A2780adr cells came to 0.75 h.

With `C1=Cc2nc1c(-c1ccccc1)c1ccc([n-]1)c(-c1ccccc1)c1nc(c(-c3ccccc3)c3ccc([n-]3)c2-c2ccccc2)C=C1.[Au+3].[Cl-]` [Au1a, [Au(TPP)]Cl, reference compound], in the data set with A2780adr cells, the “incubation time after which the amount in A2780adr cells decreases” value came out at 0.5 h.
